Data as given in patent US8962660B2 (Bristol-Myers Squibb Company, priority 2013, dated 2015).

molecular target: T1, human GPR120 (Homo sapiens, UniProt Q5NUL3); test: GPR120 pERK AlphaScreen SureFire assay (human); type: cell-based; conditions: CHO cells stably transfected with short form of human GPR120
T1 construct: expressed in transfected cells; host or cells: CHOA12 cells
T1 sequence (Q5NUL3 1-361): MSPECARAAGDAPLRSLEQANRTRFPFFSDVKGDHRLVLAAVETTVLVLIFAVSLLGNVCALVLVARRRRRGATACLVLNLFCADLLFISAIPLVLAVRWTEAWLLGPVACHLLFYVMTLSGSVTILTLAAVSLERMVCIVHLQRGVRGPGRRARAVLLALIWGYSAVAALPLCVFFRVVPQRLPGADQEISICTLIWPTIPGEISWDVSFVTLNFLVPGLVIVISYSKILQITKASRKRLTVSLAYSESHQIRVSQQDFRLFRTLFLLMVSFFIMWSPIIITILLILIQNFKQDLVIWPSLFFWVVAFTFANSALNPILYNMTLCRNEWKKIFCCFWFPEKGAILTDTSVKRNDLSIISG
How it was run: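 CHOA12 cells stably expressing short-form human GPR120, serum-starved 2 h, were stimulated 7 min at 37 °C with compound (33.33 μM–0.56 nM, 11-point). pERK read by AlphaScreen SureFire; activation normalized to 50 μM linolenic acid and DMSO blank, EC50 by 4-parameter fit.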

| EC50 [nM] | Compound |
| --- | --- |
| 400 | O=C(O)COCCC12CCC(c3cccc(Oc4ccc(F)c(F)c4)c3)(CC1)OC2 [Example 75, 2-(2-(1-(3-(3,4-difluoro-phenoxy)phenyl)-2-oxabicyclo[2.2.2]octan-4-yl)ethoxy)acetic acid] |
| 420 | O=C(O)COCCC12CCC(c3cccc(Oc4cc(F)cc(F)c4)c3)(CC1)OC2 [Example 76, 2-(2-(1-(3-(3,5-difluorophenoxy)phenyl)-2-oxabicyclo[2.2.2]octan-4-yl)ethoxy)acetic acid] |
| 550 | O=C(O)COCCC12CCC(c3cc(F)cc(Oc4ccc(F)c(F)c4)c3)(CC1)OC2 [Example 79, 2-(2-(1-(3-(3,4-difluorophenoxy)-5-fluorophenyl)-2-oxabicyclo [2.2.2]octan-4-yl)ethoxy) acetic acid] |
| 520 | Cc1cc(Oc2cc(F)cc(C34CCC(CCOCC(=O)O)(CC3)CO4)c2)ccc1F [Example 81, 2-(2-(1-(3-fluoro-5-(4-fluoro-3-methylphenoxy)phenyl)-2-oxabicyclo [2.2.2]octan-4-yl)ethoxy) acetic acid] |
| 850 | COc1cc(Oc2cc(F)cc(C34CCC(CCOCC(=O)O)(CC3)CO4)c2)ccc1F [Example 86, 2-(2-(1-(3-fluoro-5-(4-fluoro-3-methoxyphenoxy)phenyl)-2-oxabicyclo [2.2.2]octan-4-yl)ethoxy) acetic acid] |
| 410 | O=C(O)COCCC12CCC(c3ccc(F)c(Oc4ccccc4)c3)(CC1)OC2 [Example 87, 2-(2-(1-(4-fluoro-3-phenoxyphenyl)-2-oxabicyclo[2.2.2]octan-4-yl)ethoxy)acetic acid] |
| 340 | O=C(O)COCCC12CCC(c3ccc(F)c(Oc4ccc(F)cc4)c3)(CC1)OC2 [Example 88, 2-(2-(1-(4-fluoro-3-(4-fluorophenoxy)phenyl)-2-oxabicyclo[2.2.2]octan-4-yl)ethoxy)acetic acid] |
| 950 | COc1cc(Oc2ccccc2)cc(C23CCC(CCOCC(=O)O)(CC2)CO3)c1 [Example 90, 2-(2-(1-(3-methoxy-5-phenoxyphenyl)-2-oxabicyclo[2.2.2]octan-4-yl)ethoxy)acetic acid] |
| 630 | COc1cc(Oc2ccc(F)c(F)c2)cc(C23CCC(CCOCC(=O)O)(CC2)CO3)c1 [Example 91, 2-(2-(1-(3-(3,4-difluorophenoxy)-5-methoxyphenyl)-2-oxabicyclo[2.2.2]octan-4-yl)ethoxy)acetic acid] |
| 800 | COc1cc(Oc2ccc(F)cc2)cc(C23CCC(CCOCC(=O)O)(CC2)CO3)c1 [Example 92, 2-(2-(1-(3-(4-fluorophenoxy)-5-methoxyphenyl)-2-oxabicyclo[2.2.2]octan-4-yl)ethoxy)acetic acid] |
| 320 | Cc1ccc(Oc2cccc(C34CCC(CCOCC(=O)O)(CC3)OC4)c2)cc1F [Example 101] |
| 660 | COc1cccc(Oc2cccc(C34CCC(CCOCC(=O)O)(CC3)OC4)c2)c1 [Example 102] |
| 7780 | O=C(O)COCCC12CCC(c3cccc(Oc4cccnc4)c3)(CC1)CO2 [Example 104] |
| 3440 | O=C(O)COCCC12CCC(c3cccc(Oc4ccc(F)cc4)c3)(CC1)CO2 [Example 105] |
| 1870 | N#Cc1cccc(Oc2cccc(C34CCC(CCOCC(=O)O)(CC3)OC4)c2)c1 [Example 107] |
| 490 | O=C(O)COCCCC12CCC(c3cccc(Oc4ccccc4)c3)(CC1)CO2 [Example 110, 2-(3-(4-(3-Phenoxyphenyl)-2-oxabicyclo[2.2.2]octan-1-yl)propoxy)acetic acid] |
| 270 | Cc1ccc(Oc2cc(C34CCC(CCOCC(=O)O)(CC3)OC4)ccc2F)cc1F [Example 112] |
| 860 | Cc1ccc(Oc2cc(C34CCC(CCOCC(=O)O)(CC3)OC4)ccc2F)cc1C [Example 113] |

More lines, now with the values behind:

| Compound | EC50 [nM] |
| --- | --- |
| O=C(O)[C@@H]1C[C@H]1CCC12CCC(c3cccc(Oc4ccc(F)c(F)c4)c3)(CC1)OC2 [Example 73, (1R,2R)-2-(2-(1-(3-(3,4-difluorophenoxy)phenyl)-2-oxabicyclo[2.2.2]octan-4-yl)ethyl) cyclopropanecarboxylic acid] | 540 |
| O=C(O)[C@@H]1C[C@H]1CCC12CCC(c3cccc(Oc4ccc(O)cc4)c3)(CC1)OC2 [Example 74, (1R,2R)-2-(2-(1-(3-(4-hydroxy-phenoxy)phenyl)-2-oxabicyclo[2.2.2]octan-4-yl)ethyl)cyclo-propanecarboxylic acid] | 2530 |
| Cc1ccc(Oc2cccc(C34CCC(CCOCC(=O)O)(CC3)CO4)c2)cc1F [Example 77, 2-(2-(1-(3-(3-fluoro-4-methylphenoxy)phenyl)-2-oxabicyclo[2.2.2]octan-4-yl)ethoxy)acetic acid] | 230 |
| Cc1cc(Oc2cccc(C34CCC(CCOCC(=O)O)(CC3)CO4)c2)ccc1F [Example 78, 2-(2-(1-(3-(4-fluoro-3-methylphenoxy)phenyl)-2-oxabicyclo[2.2.2]octan-4-yl)ethoxy)acetic acid] | 490 |
| COc1cccc(Oc2cc(F)cc(C34CCC(CCOCC(=O)O)(CC3)CO4)c2)c1 [Example 82, 2-(2-(1-(3-fluoro-5-(3-methoxyphenoxy)phenyl)-2-oxabicyclo[2.2.2]octan-4-yl)ethoxy)acetic acid] | 810 |
| Cc1ccc(Oc2cc(F)cc(C34CCC(CCOCC(=O)O)(CC3)CO4)c2)cc1 [Example 83, 2-(2-(1-(3-fluoro-5-(p-tolyloxy)phenyl)-2-oxabicyclo[2.2.2]octan-4-yl)ethoxy)acetic acid] | 320 |
| COc1cc(F)cc(Oc2cc(F)cc(C34CCC(CCOCC(=O)O)(CC3)CO4)c2)c1 [Example 84, 2-(2-(1-(3-fluoro-5-(3-fluoro-5-methoxyphenoxy)phenyl)-2-oxabicyclo [2.2.2]octan-4-yl)ethoxy) acetic acid] | 470 |
| O=C(O)COCCC12CCC(c3cc(F)cc(Oc4ccc(F)cc4)c3)(CC1)OC2 [Example 85, 2-(2-(1-(3-fluoro-5-(4-fluorophenoxy)phenyl)-2-oxabicyclo[2.2.2]octan-4-yl)ethoxy)acetic acid] | 310 |
| Cc1ccc(Oc2cc(C34CCC(CCOCC(=O)O)(CC3)CO4)ccc2F)cc1F [Example 89, 2-(2-(1-(4-fluoro-3-(3-fluoro-4-methylphenoxy)phenyl)-2-oxabicyclo [2.2.2]octan-4-yl)ethoxy) acetic acid] | 350 |
| COc1cc(Oc2ccc(C)c(F)c2)cc(C23CCC(CCOCC(=O)O)(CC2)CO3)c1 [Example 93, 2-(2-(1-(3-(3-fluoro-4-methylphenoxy)-5-methoxyphenyl)-2-oxabicyclo[2.2.2]octan-4-yl)ethoxy)acetic acid] | 520 |
| Cc1ccc(Oc2cc(F)cc(C34CCC(CCOCC(=O)NO)(CC3)CO4)c2)cc1F [Example 94, 2-(2-(1-(3-Fluoro-5-(3-fluoro-4-methylphenoxy)phenyl)-2-oxabicyclo[2.2.2]octan-4-yl)ethoxy)-N-hydroxyacetamide] | 1160 |
| O=C(O)COCCC12CCC(c3cc(F)c(F)c(Oc4ccc(F)cc4)c3)(CC1)OC2 [Example 95, 2-(2-(1-(3,4-Difluoro-5-(4-fluorophenoxy)phenyl)-2-oxabicyclo[2.2.2]octan-4-yl)ethoxy) acetic acid] | 350 |
| O=C(O)C1CC1COC12CCC(c3cccc(Oc4ccccc4)c3)(CC1)OC2 (stereo not shown) [Example 96, 2-(((1-(3-Phenoxyphenyl)-2-oxabicyclo[2.2.2]octan-4-yl)oxy)methyl) cyclopropanecarboxylic acid] | 1680 |
| O=C(O)C1CC1COCC12CCC(c3cccc(Oc4ccccc4)c3)(CC1)OC2 (stereo not drawn) [Example 97, Trans-2-(((1-(3-phenoxyphenyl)-2-oxabicyclo[2.2.2]octan-4-yl)methoxy)methyl) cyclopropane carboxylic acid] | 390 |
| COc1ccc(Oc2cccc(C34CCC(CCOCC(=O)O)(CC3)OC4)c2)cc1F [Example 100, 2-(2-(4-(3-(3-Fluoro-4-methoxyphenoxy)phenyl)-2-oxabicyclo[2.2.2]octan-1-yl)ethoxy) acetic acid] | 550 |
| Cc1cc(Oc2cccc(C34CCC(CCOCC(=O)O)(CC3)OC4)c2)ccc1F [Example 103] | 540 |
| Cc1ccc(Oc2cccc(C34CCC(CCOCC(=O)O)(CC3)OC4)c2)cc1 [Example 106] | 580 |
| Cc1ccc(Oc2cc(F)cc(C34CCC(CCOCC(=O)O)(CC3)OC4)c2)cc1F [Example 108, 2-(2-(4-(3-Fluoro-5-(3-fluoro-4-methylphenoxy)phenyl)-2-oxabicyclo[2.2.2]octan-1-yl)ethoxy)acetic acid] | 730 |
| O=C(O)COCCC12CCC(c3cccc(Oc4ccccn4)c3)(CC1)CO2 [Example 109, 2-(2-(4-(3-(Pyridin-2-yloxy)phenyl)-2-oxabicyclo[2.2.2]octan-1-yl)ethoxy)acetic acid] | 5550 |
| O=C(O)COCCC12CCC(c3cccc(OC4CCCCC4)c3)(CC1)CO2 [Example 111, 2-(2-(4-(3-(Cyclohexyloxy)phenyl)-2-oxabicyclo[2.2.2]octan-1-yl)ethoxy) acetic acid] | 640 |
| Cc1cc(Oc2cc(C34CCC(CCOCC(=O)O)(CC3)OC4)ccc2F)ccc1C#N [Example 114] | 2730 |
| Cc1ccc(Oc2cccc(C34CCC(CCOCC(=O)O)(CC3)CO4)c2)cn1 [Example 115, 2-(2-(1-(3-(6-methylpyridin-3-yloxy)phenyl)-2-oxabicyclo[2.2.2]octan-4-yl)ethoxy)acetic acid] | 5560 |
